“Also recorded” adds a separate entry of the source.
Assays:
[1] = molecular target: T1, non-glyc-HS2ST (non-glycosylated chicken HS2ST), WT (Gallus gallus, UniProt Q76KB1); assay: BLI equilibrium binding, non-glyc-HS2ST WT; details: BLI saturation binding curves, biotin-PEG4-linked hexasaccharide on sensor, n = 3, ± standard error of fit; — = response too weak to fit
T1 construct: made in house; host or cells: E. coli Origami B (DE3)
T1 sequence (Q76KB1 69-356 limits assumed): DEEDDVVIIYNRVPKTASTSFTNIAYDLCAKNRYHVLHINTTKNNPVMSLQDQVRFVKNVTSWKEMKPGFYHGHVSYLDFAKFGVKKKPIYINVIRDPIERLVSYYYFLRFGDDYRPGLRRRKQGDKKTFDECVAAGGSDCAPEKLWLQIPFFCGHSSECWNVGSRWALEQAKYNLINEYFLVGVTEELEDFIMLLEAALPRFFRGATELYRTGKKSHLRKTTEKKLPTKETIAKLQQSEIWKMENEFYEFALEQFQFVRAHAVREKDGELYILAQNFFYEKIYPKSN
From the text: (§1) HS-protein binding studies often utilize biologically-derived oligosaccharides of heterogeneous length and sulfation[34],[35]; however, the synthesis of oligosaccharides with defined length and specific sulfation patterns has recently become possible. We employed biolayer interferometry (BLI) to determine equilibrium surface binding constants (KD) for HS2ST with synthetic HS hexasaccharides (Fig. 1 and Supplementary Table 1). The HS compounds were attached to the BLI biosensor surface to conserve sample and to ensure a significant signal upon protein binding. The HS compounds contained a biotinylated PEG4 linker at the reducing terminus, enhancing the likelihood of a consistent presentation of the linear glycan on the sensor surface, in contrast to immobilizations via intra-chain modifications.
Binding constants were collected for two isoforms of the enzyme; a glycosylated human variant (glyc-HS2ST) expressed in mammalian cell lines, and a highly homologous (96% identity) non-glycosylated chicken isoform expressed in E. coli (non-glyc-HS2ST). […] Thus, the enhanced ligand affinity seen in HS2ST was unexpected and may relate to the specific position of the glycosylation site (N108)[41].
The chicken HS2ST-Maltose Binding Protein (MBP) fusion protein was expressed and purified according to previous studies. The fusion protein was transformed into E. coli Origami B (DE3) cells, cultured at 37 °C until OD600 reached 0.5, then induced with isopropyl-β-D-thiogalactopyranoside and allowed to grow overnight at 20 °C. Cells were sonicated, followed by a two-step purification procedure. Whole-cell supernatant was passed through an amylose column with Tris buffer (25 mM Tris, 500 mM NaCl, pH 7.5). An elution buffer consisted of Tris Buffer with 40 mM Maltose. The amylose column eluent was concentrated and loaded on a Superdex 200 Increase 10/300 GL with PBS buffer (10 mM sodium phosphate, 150 mM NaCl, pH 7.8) to separate trimeric protein from aggregate and independent MBP (Supplementary Fig. 4). All reported mutations formed homotrimeric complexes according to the SEC profiles, including the negative control (NC = R189A/R80E/R184E). Protein concentration was assessed via UV at 280 nm (MW of trimer ~210 KDa, extinction coefficient ~119,000 M^−1 cm^−1 according to ExPASy ProtParam webtool[56]). The trimeric protein preparation was adjusted to 5% glycerol and stored at −20 °C until use. Additional non-glyc-HS2ST constructs were created with the Q5® Mutagenesis kit (New England Biolabs Inc.; cat. # E0554S) and sequenced at the Georgia Genomics Facility at the University of Georgia.
The Octet® RED96 system (FortéBio Inc.) was employed to detect the affinity of the enzymes for specific HS targets. Due to the small size of the glycan and the deep HS2ST binding cavity, the glycan and protein were treated as ligand and analyte, respectively. Varyingly sulfated HS fragments conjugated to biotin linkers were purchased from Glycan Therapeutics Inc. with purities greater than 93% according to HPLC (sequences located in Supplementary Table 1). The glycans were immobilized onto streptavidin (SA) labeled biosensors (FortéBio; cat. #18–5019) at 0.5 µg/mL. Experiments were performed at 25 °C in PBS Buffer (10 mM sodium phosphate, 150 mM NaCl, pH 7.8) with a final concentration of 1X Pall Kinetics buffer (FortéBio Inc; cat. #18–1092). Fresh biosensors and protein samples were used for each measurement (no regeneration step). […]

[2] = molecular target: T2, glyc-HS2ST (glycosylated human HS2ST), WT (Homo sapiens, UniProt Q7LGA3); assay: BLI equilibrium binding, glyc-HS2ST WT; details: BLI saturation binding curves, biotin-PEG4-linked hexasaccharide immobilised on sensor, n = 3, ± standard error of fit, 25 °C, PBS pH 7.8
T2 construct: the human HS2ST catalytic domain region comprising of 328 amino acid residues; His8 (N, cleaved yes); AviTag (N, cleaved yes); superfolder GFP (N, cleaved yes); made in house; host or cells: HEK293-F (transient transfection, secreted)
T2 sequence (Q7LGA3 29-356 limits assumed): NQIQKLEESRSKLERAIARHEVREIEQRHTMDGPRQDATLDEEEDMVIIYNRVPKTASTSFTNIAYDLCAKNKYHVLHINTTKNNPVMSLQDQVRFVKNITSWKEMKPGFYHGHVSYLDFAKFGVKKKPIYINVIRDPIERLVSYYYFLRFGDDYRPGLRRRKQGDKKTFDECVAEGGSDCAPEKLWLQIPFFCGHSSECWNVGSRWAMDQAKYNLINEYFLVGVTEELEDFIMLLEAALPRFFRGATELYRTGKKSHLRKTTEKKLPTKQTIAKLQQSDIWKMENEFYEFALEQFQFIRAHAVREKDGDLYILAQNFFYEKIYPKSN
From the text: as §1, with “modifications. […]” for “modifications.”
An expression construct was generated encoding the truncated catalytic domain of human HS2ST as an NH2-terminal fusion protein in the pGEn2 expression vector essentially as described in prior studies. […] The recombinant human HS2ST was expressed as a soluble secreted protein by transient transfection of suspension culture HEK293-F cells (FreeStyle^TM 293-Fcells, Thermo Fisher Scientific, Waltham MA) maintained at 0.5–3.0 × 10^6 cells/ml in a humidified CO2 platform shaker incubator at 37 °C with 55% humidity. […]

- Equilibrium KD, WT glyc-HS2ST [2]: too weak to measure
Substance: GlcNS-GlcA-GlcNS-IdoA-GlcNS-GlcA~ [Compound 1]
- Equilibrium KD, WT non-glyc-HS2ST [1]: too weak to measure; also recorded: insufficient for KD determination

— publication PMC6081452, “Downstream Products are Potent Inhibitors of the Heparan Sulfate 2-O-Sulfotransferase” (Scientific Reports, 2018)
